According to patent US20140106967A1, “AUXIN PLANT GROWTH REGULATORS” (The Governors of The University of Alberta, priority 2011, published 2014):

Tested on: pea plants cv. 'Carneval'
Test: Growth chamber experiment 2, pea 'Carneval' sprayed with 4-ME-IAA: peduncle/pedicel growth and seed yield, with or without heat stress (Tables P3-P12)
Format: in vivo, Pisum sativum L.
Experimental: For growth chamber experiment, seeds of ‘Carneval’ were planted at an approximate depth of 2.5 cm in 3-L plastic pots (4 seeds per pot and thinned to 2 plants per pot after approximately 2 weeks) in 1:1 Sunshine #4 potting mix (Sun Gro Horticulture, Vancouver, Canada) and sand. The experiment was arranged in a completely randomized design and grown at the University of Alberta in a growth chamber set at 19° C./17° C. (day/night) with a 16/8-h photoperiod under cool-white fluorescent lights (54W/835/HO high fluorescent bulbs, Phillips, Holland; 350 μE m^2 s^−2). For the heat stress treatment, plants were placed in a separate growth chamber with a 16/8-h photoperiod under cool-white fluorescent lights (F54/15/835/HO high fluorescent bulbs, Phillips, Holland) for 4 days where the temperature was cycled over a 24 hr period as follows: 33° C. air temperature for 6 hours per day (between 11:00 and 17:00 hrs) for 4 days during the light cycle; the remainder of the light cycle was maintained at a 22° C. air temperature; the dark cycle was maintained at 19° C. After the 4 day heat treatment, the plants were returned to the same growth chamber they were originally grown in, where they were taken to maturity.
For experiment 2, aqueous 4-methyl-indole-3-acetic acid (4-ME-IAA) solutions at 1×10^−7, 1×10^−6, 1×10^−5, or 1×10^−4 M in 0.1% (v/v) Tween 80 or aqueous 0.1% (v/v) Tween 80 (control) were applied as a spray to the entire plant to cover when the first flowering node of the main stem was near or at anthesis. In addition to the application at the timing cited above, one application of 4-ME-IAA at 1×10^−6 M or 1×10^−5 M was made when the floral buds were tightly clustered inside the stipule leaves at the stem apex (floral buds not visible outside of stipule leaves; designated the ‘Early’ treatment). In the heat stress treatment, the hormone or control treatment application was completed 16 hrs prior to the initiation of the first heat-stress cycle. The length and diameter (measured mid-length) of the lower and upper peduncles and pedicels of the inflorescence with two pods (or the lower peduncle and pedicel if a single pod node) at the first, second, third and fourth flowering nodes of the main stem of pea plants were determined for hormone-treated and control plants. Standard error of the mean (SE) was calculated for the means of all data for a measure of statistical significance in comparing treatment means.

[1] = 1×10^−6 M, first flowering node, heat stress (33° C. 6 h/day, 4 days)
[2] = 1×10^−6 M, first flowering node, no heat stress
[3] = 1×10^−6 M, fourth flowering node, heat stress (33° C. 6 h/day, 4 days)
[4] = 1×10^−6 M, fourth flowering node, no heat stress
[5] = 1×10^−6 M, heat stress (33° C. 6 h/day, 4 days)
[6] = 1×10^−6 M, second flowering node, heat stress (33° C. 6 h/day, 4 days)
[7] = 1×10^−6 M, second flowering node, no heat stress
[8] = 1×10^−6 M, third flowering node, heat stress (33° C. 6 h/day, 4 days)
[9] = 1×10^−6 M, third flowering node, no heat stress
[10] = 1×10^−7 M, applied near or at anthesis, no heat stress
[11] = 1×10^−7 M, first flowering node, heat stress (33° C. 6 h/day, 4 days)
[12] = 1×10^−7 M, first flowering node, no heat stress
[13] = 1×10^−7 M, fourth flowering node, heat stress (33° C. 6 h/day, 4 days)
[14] = 1×10^−7 M, fourth flowering node, no heat stress
[15] = 1×10^−7 M, heat stress (33° C. 6 h/day, 4 days)
[16] = 1×10^−7 M, second flowering node, heat stress (33° C. 6 h/day, 4 days)
[17] = 1×10^−7 M, second flowering node, no heat stress
[18] = 1×10^−7 M, third flowering node, heat stress (33° C. 6 h/day, 4 days)
[19] = 1×10^−7 M, third flowering node, no heat stress
[20] = Early treatment (tight floral bud stage) 1×10^−5 M, no heat stress
[21] = Early treatment (tight floral bud stage) 1×10^−6 M, no heat stress

Cc1cccc2[nH]cc(CC(=O)O)c12 [4-ME-IAA, 4-methyl-indole-3-acetic acid]
Lower Peduncle diameter [1]: 1.38 ± 0.08 mm | Upper Pedicel Length [1]: 8.29 ± 0.18 mm | Upper Pedicel diameter [1]: 1.43 ± 0.06 mm | Upper Peduncle Length [1]: 16.71 ± 1.55 mm | Upper Peduncle diameter [1]: 1.19 ± 0.07 mm | Lower Pedicel Length [2]: 9.40 ± 0.27 mm | Lower Pedicel diameter [2]: 1.70 ± 0.04 mm | Lower Peduncle Length [2]: 75.00 ± 4.00 mm | Lower Peduncle diameter [2]: 1.65 ± 0.03 mm | Upper Pedicel Length [2]: 9.40 ± 0.27 mm | Upper Pedicel diameter [2]: 1.54 ± 0.04 mm | Upper Peduncle Length [2]: 20.30 ± 1.54 mm | Upper Peduncle diameter [2]: 1.37 ± 0.05 mm | Lower Pedicel Length [3]: 7.40 ± 0.24 mm | Lower Pedicel diameter [3]: 1.49 ± 0.11 mm | Lower Peduncle Length [3]: 26.80 ± 4.55 mm | Lower Peduncle diameter [3]: 1.25 ± 0.06 mm | Upper Pedicel Length [3]: 8.00 mm | Upper Pedicel diameter [3]: 1.46 mm | Upper Peduncle Length [3]: 15.00 mm | Upper Peduncle diameter [3]: 1.33 mm | Lower Pedicel Length [4]: 8.80 ± 0.25 mm | Lower Pedicel diameter [4]: 1.34 ± 0.03 mm | Lower Peduncle Length [4]: 38.00 ± 3.63 mm | Lower Peduncle diameter [4]: 1.38 ± 0.05 mm | Upper Pedicel Length [4]: 8.33 ± 0.29 mm | Upper Pedicel diameter [4]: 1.24 ± 0.05 mm | Upper Peduncle Length [4]: 16.67 ± 0.69 mm | Upper Peduncle diameter [4]: 1.16 ± 0.03 mm | Ratio of seed number on main stem to lateral stems [5]: 2.0 ± 0.5 | Seed number plant [5]: 46.8 ± 3.3 | Seed weight per per plant [5]: 12.9 ± 0.9 g | Weight per seed [5]: 0.277 ± 0.005 g | Lower Pedicel Length [6]: 8.80 ± 0.36 mm | Lower Pedicel diameter [6]: 1.47 ± 0.05 mm | Lower Peduncle Length [6]: 47.10 ± 3.42 mm | Lower Peduncle diameter [6]: 1.28 ± 0.06 mm | Upper Pedicel Length [6]: 8.14 ± 0.14 mm | Upper Pedicel diameter [6]: 1.43 ± 0.04 mm | Upper Peduncle Length [6]: 16.86 ± 1.01 mm | Upper Peduncle diameter [6]: 1.20 ± 0.07 mm | Lower Pedicel Length [7]: 9.4 ± 0.27 mm | Lower Pedicel diameter [7]: 1.51 ± 0.04 mm | Lower Peduncle Length [7]: 58.20 ± 5.41 mm | Lower Peduncle diameter [7]: 1.51 ± 0.04 mm | Upper Pedicel Length [7]: 9.20 ± 0.33 mm | Upper Pedicel diameter [7]: 1.47 ± 0.04 mm | Upper Peduncle Length [7]: 19.00 ± 0.60 mm | Upper Peduncle diameter [7]: 1.26 ± 0.02 mm | Lower Pedicel Length [8]: 7.90 ± 0.28 mm | Lower Pedicel diameter [8]: 1.43 ± 0.05 mm | Lower Peduncle Length [8]: 34.50 ± 2.73 mm | Lower Peduncle diameter [8]: 1.33 ± 0.05 mm | Upper Pedicel Length [8]: 8.60 ± 0.24 mm | Upper Pedicel diameter [8]: 1.34 ± 0.04 mm | Upper Peduncle Length [8]: 15.80 ± 1.11 mm | Upper Peduncle diameter [8]: 1.17 ± 0.03 mm | Lower Pedicel Length [9]: 9.00 ± 0.30 mm | Lower Pedicel diameter [9]: 1.39 ± 0.04 mm | Lower Peduncle Length [9]: 45.90 ± 4.3 mm | Lower Peduncle diameter [9]: 1.49 ± 0.04 mm | Upper Pedicel Length [9]: 9.00 ± 0.29 mm | Upper Pedicel diameter [9]: 1.31 ± 0.04 mm | Upper Peduncle Length [9]: 18.00 ± 0.96 mm | Upper Peduncle diameter [9]: 1.17 ± 0.02 mm | Ratio of seed number on main stem to lateral stems [10]: 3.0 ± 0.4 | Seed number per plant [10]: 63.5 ± 6.8 | Seed weight per plant [10]: 15.5 ± 1.6 g | Weight per seed [10]: 0.245 ± 0.004 g | increase in seed yield (seed weight per plant) vs control [10]: 78% | Lower Pedicel Length [11]: 9.40 ± 0.34 mm | Lower Pedicel diameter [11]: 1.73 ± 0.04 mm | Lower Peduncle Length [11]: 68.40 ± 5.39 mm | Lower Peduncle diameter [11]: 1.72 ± 0.05 mm | Upper Pedicel Length [11]: 9.00 ± 0.37 mm | Upper Pedicel diameter [11]: 1.67 ± 0.06 mm | Upper Peduncle Length [11]: 18.11 ± 0.59 mm | Upper Peduncle diameter [11]: 1.45 ± 0.08 mm | Lower Pedicel Length [12]: 9.30 ± 0.26 mm | Lower Pedicel diameter [12]: 1.65 ± 0.04 mm | Lower Peduncle Length [12]: 67.10 ± 5.30 mm | Lower Peduncle diameter [12]: 1.59 ± 0.04 mm | Upper Pedicel Length [12]: 9.20 ± 0.20 mm | Upper Pedicel diameter [12]: 1.52 ± 0.03 mm | Upper Peduncle Length [12]: 19.80 ± 1.08 mm | Upper Peduncle diameter [12]: 1.27 ± 0.05 mm | Lower Pedicel Length [13]: 7.50 ± 0.56 mm | Lower Pedicel diameter [13]: 1.49 ± 0.05 mm | Lower Peduncle Length [13]: 38.67 ± 3.18 mm | Lower Peduncle diameter [13]: 1.58 ± 0.06 mm | Upper Pedicel Length [13]: 8.00 ± 0.58 mm | Upper Pedicel diameter [13]: 1.39 ± 0.15 mm | Upper Peduncle Length [13]: 17.00 ± 1.00 mm | Upper Peduncle diameter [13]: 1.30 ± 0.06 mm | Lower Pedicel Length [14]: 9.57 ± 0.37 mm | Lower Pedicel diameter [14]: 1.37 ± 0.03 mm | Lower Peduncle Length [14]: 44.00 ± 3.22 mm | Lower Peduncle diameter [14]: 1.37 ± 0.03 mm | Upper Pedicel Length [14]: 8.86 ± 0.55 mm | Upper Pedicel diameter [14]: 1.25 ± 0.04 mm | Upper Peduncle Length [14]: 18.57 ± 0.61 mm | Upper Peduncle diameter [14]: 1.12 ± 0.03 mm | Ratio of seed number on main stem to lateral stems [15]: 1.2 ± 0.2 | Seed number plant [15]: 55.9 ± 5.9 | Seed weight per per plant [15]: 15.3 ± 1.7 g | Weight per seed [15]: 0.273 ± 0.010 g | increase in seed number per plant over control (1×10^−7 M, mild heat stress): 30% | increase in seed weight per plant over control (1×10^−7 M, mild heat stress): 29% | Lower Pedicel Length [16]: 8.78 ± 0.28 mm | Lower Pedicel diameter [16]: 1.69 ± 0.06 mm | Lower Peduncle Length [16]: 62.00 ± 2.88 mm | Lower Peduncle diameter [16]: 1.69 ± 0.05 mm | Upper Pedicel Length [16]: 8.50 ± 0.22 mm | Upper Pedicel diameter [16]: 1.55 ± 0.07 mm | Upper Peduncle Length [16]: 17.00 ± 0.73 mm | Upper Peduncle diameter [16]: 1.41 ± 0.05 mm | Lower Pedicel Length [17]: 9.3 ± 0.30 mm | Lower Pedicel diameter [17]: 1.57 ± 0.05 mm | Lower Peduncle Length [17]: 55.80 ± 4.61 mm | Lower Peduncle diameter [17]: 1.57 ± 0.03 mm | Upper Pedicel Length [17]: 9.20 ± 0.29 mm | Upper Pedicel diameter [17]: 1.48 ± 0.04 mm | Upper Peduncle Length [17]: 19.00 ± 0.76 mm | Upper Peduncle diameter [17]: 1.25 ± 0.02 mm | Lower Pedicel Length [18]: 8.13 ± 0.40 mm | Lower Pedicel diameter [18]: 1.70 ± 0.06 mm | Lower Peduncle Length [18]: 46.13 ± 2.75 mm | Lower Peduncle diameter [18]: 1.61 ± 0.06 mm | Upper Pedicel Length [18]: 8.20 ± 0.37 mm | Upper Pedicel diameter [18]: 1.46 ± 0.11 mm | Upper Peduncle Length [18]: 18.60 ± 0.98 mm | Upper Peduncle diameter [18]: 1.31 ± 0.07 mm | Lower Pedicel Length [19]: 9.44 ± 0.18 mm | Lower Pedicel diameter [19]: 1.46 ± 0.04 mm | Lower Peduncle Length [19]: 48.44 ± 2.5 mm | Lower Peduncle diameter [19]: 1.42 ± 0.05 mm | Upper Pedicel Length [19]: 9.00 ± 0.33 mm | Upper Pedicel diameter [19]: 1.26 ± 0.05 mm | Upper Peduncle Length [19]: 18.38 ± 1.10 mm | Upper Peduncle diameter [19]: 1.07 ± 0.03 mm | number of inflorescences with two pods at the fourth flowering node (1×10^−7 to 1×10^−4 M, no heat stress, control 10%): 70-90 % of the plants | number of inflorescences with 2 pods at the third flowering node (1×10^−7 to 1×10^−4 M, no heat stress, control 20%): 80-100 % of the plants | increase in seed yield vs control ('Early' treatment 1×10^−6 M): 109% | Ratio of seed number on main stem to lateral stems [20]: 1.5 ± 0.2 | Seed number per plant [20]: 64.8 ± 5.2 | Seed weight per plant [20]: 16.2 ± 1.3 g | Weight per seed [20]: 0.252 ± 0.006 g | Ratio of seed number on main stem to lateral stems [21]: 1.6 ± 0.1 | Seed number per plant [21]: 73.8 ± 5.9 | Seed weight per plant [21]: 18.2 ± 1.4 g | Weight per seed [21]: 0.248 ± 0.006 g
